From ChEMBL document CHEMBL1131216, “Anhydrolide macrolides. 2. Synthesis and antibacterial activity of 2,3-anhydro-6-O-methyl 11,12-carbazate erythromycin A analogues” (1998)
Values after ≈ are worked out from the molar mass of the structure shown.

Key:
Format in all cases: functional
[1] = test system: Streptococcus pyogenes; experiment: In vitro antibacterial activity of EES61 strain of Gram positive bacteria Streptococcus pyogenes
[2] = test system: Haemophilus influenzae; experiment: In vitro antibacterial activity of DILL strain of Gram negative bacteria Haemophilus influenzae
[3] = test system: Streptococcus pneumoniae; experiment: In vitro antibacterial activity of ATCC 6303 strain of Gram positive bacteria Streptococcus pneumoniae
[4] = test system: Staphylococcus aureus; experiment: In vitro antibacterial activity of A5177 strain of Gram positive bacteria Staphylococcus aureus
[5] = test system: Streptococcus pneumoniae; experiment: In vitro antibacterial activity of 5979 strain of Gram positive bacteria Streptococcus pneumoniae
[6] = test system: Streptococcus pyogenes; experiment: In vitro antibacterial activity of 930 strain of Gram positive bacteria Streptococcus pyogenes
[7] = test system: Streptococcus pneumoniae; experiment: In vitro antibacterial activity of 5649 strain of Gram positive bacteria Streptococcus pneumoniae
[8] = test system: Staphylococcus aureus; experiment: In vitro antibacterial activity of 6538P strain of Gram positive bacteria Staphylococcus aureus
[9] = test system: Streptococcus pyogenes; experiment: In vitro antibacterial activity of PIU2584 strain of Gram positive bacteria Streptococcus pyogenes
[10] = test system: Staphylococcus aureus; experiment: In vitro antibacterial activity of A-5278 strain of Gram positive bacteria Staphylococcus aureus

| SMILES | MIC [1] | MIC [2] | MIC [3] | MIC [4] | MIC [5] | MIC [6] | MIC [7] | MIC [8] | MIC [9] | MIC [10] |
| --- | --- | --- | --- | --- | --- | --- | --- | --- | --- | --- |
| CC[C@H]1OC(=O)[C@H](C)[C@@H](O[C@H]2C[C@@](C)(OC)[C@@H](O)[C@H](C)O2)[C@H](C)[C@@H](O[C@@H]2O[C@H](C)C[C@H](N(C)C)[C@H]2O)[C@](C)(O)C[C@@H](C)C(=O)[C@H](C)[C@@H](O)[C@]1(C)O [ERYTHROMYCIN] | 0.03 µg/mL (≈ 0.0409 µM) | 4 µg/mL (≈ 5.45 µM) | 0.06 µg/mL (≈ 0.0818 µM) | 3.1 µg/mL (≈ 4.22 µM) | > 128 µg/mL | > 128 µg/mL | 16 µg/mL (≈ 21.8 µM) | 0.2 µg/mL (≈ 0.273 µM) | 32 µg/mL (≈ 43.6 µM) | > 100 µg/mL |
| CC[C@H]1OC(=O)/C(C)=C/[C@H](C)[C@@H](O[C@@H]2O[C@H](C)C[C@H](N(C)C)[C@H]2O)[C@@](C)(OC)C[C@@H](C)C(=O)[C@H](C)[C@H]2N(NC/C=C/c3cccc4ccccc34)C(=O)O[C@]12C | 0.125 µg/mL (≈ 0.161 µM) | 16 µg/mL (≈ 20.6 µM) | 0.125 µg/mL (≈ 0.161 µM) | 0.39 µg/mL (≈ 0.501 µM) | 16 µg/mL (≈ 20.6 µM) | 8 µg/mL (≈ 10.3 µM) | 1 µg/mL (≈ 1.29 µM) | 0.39 µg/mL (≈ 0.501 µM) | 1 µg/mL (≈ 1.29 µM) | 25 µg/mL (≈ 32.1 µM) |
| CC[C@H]1OC(=O)/C(C)=C/[C@H](C)[C@@H](O[C@@H]2O[C@H](C)C[C@H](N(C)C)[C@H]2O)[C@@](C)(OC)C[C@@H](C)C(=O)[C@H](C)[C@H]2N(NCc3ccc(C(F)(F)F)cc3)C(=O)O[C@]12C | 0.06 µg/mL (≈ 0.0779 µM) | 16 µg/mL (≈ 20.8 µM) | 0.06 µg/mL (≈ 0.0779 µM) | 0.78 µg/mL (≈ 1.01 µM) | 16 µg/mL (≈ 20.8 µM) | 16 µg/mL (≈ 20.8 µM) | 2 µg/mL (≈ 2.6 µM) | 0.78 µg/mL (≈ 1.01 µM) | 2 µg/mL (≈ 2.6 µM) | 100 µg/mL (≈ 130 µM) |
| CC[C@H]1OC(=O)/C(C)=C/[C@H](C)[C@@H](O[C@@H]2O[C@H](C)C[C@H](N(C)C)[C@H]2O)[C@@](C)(OC)C[C@@H](C)C(=O)[C@H](C)[C@H]2N(NCCc3ccc(Oc4ccccc4)cc3)C(=O)O[C@]12C | 0.25 µg/mL (≈ 0.309 µM) | > 64 µg/mL | 0.25 µg/mL (≈ 0.309 µM) | 1.56 µg/mL (≈ 1.93 µM) | 16 µg/mL (≈ 19.8 µM) | 8 µg/mL (≈ 9.9 µM) | 2 µg/mL (≈ 2.48 µM) | 1.56 µg/mL (≈ 1.93 µM) | 2 µg/mL (≈ 2.48 µM) | 25 µg/mL (≈ 30.9 µM) |
| CC[C@H]1OC(=O)/C(C)=C/[C@H](C)[C@@H](O[C@@H]2O[C@H](C)C[C@H](N(C)C)[C@H]2O)[C@@](C)(OC)C[C@@H](C)C(=O)[C@H](C)[C@H]2N(NCCCc3ccccc3O)C(=O)O[C@]12C | 0.03 µg/mL (≈ 0.0402 µM) | 16 µg/mL (≈ 21.4 µM) | 0.03 µg/mL (≈ 0.0402 µM) | 0.2 µg/mL (≈ 0.268 µM) | > 128 µg/mL | > 128 µg/mL | 2 µg/mL (≈ 2.68 µM) | 0.2 µg/mL (≈ 0.268 µM) | 2 µg/mL (≈ 2.68 µM) | > 100 µg/mL |
| CC[C@H]1OC(=O)/C(C)=C/[C@H](C)[C@@H](O[C@@H]2O[C@H](C)C[C@H](N(C)C)[C@H]2O)[C@@](C)(OC)C[C@@H](C)C(=O)[C@H](C)[C@H]2N(NCc3cccnc3)C(=O)O[C@]12C | 0.03 µg/mL (≈ 0.0427 µM) | 8 µg/mL (≈ 11.4 µM) | 0.06 µg/mL (≈ 0.0854 µM) | 0.39 µg/mL (≈ 0.555 µM) | > 64 µg/mL | > 64 µg/mL | 1 µg/mL (≈ 1.42 µM) | 0.39 µg/mL (≈ 0.555 µM) | 1 µg/mL (≈ 1.42 µM) | > 100 µg/mL |
| CC[C@H]1OC(=O)/C(C)=C/[C@H](C)[C@@H](O[C@@H]2O[C@H](C)C[C@H](N(C)C)[C@H]2O)[C@@](C)(OC)C[C@@H](C)C(=O)[C@H](C)[C@H]2N(NCc3ccncc3)C(=O)O[C@]12C | 0.03 µg/mL (≈ 0.0427 µM) | 8 µg/mL (≈ 11.4 µM) | 0.03 µg/mL (≈ 0.0427 µM) | 0.2 µg/mL (≈ 0.285 µM) | > 128 µg/mL | > 128 µg/mL | 1 µg/mL (≈ 1.42 µM) | 0.39 µg/mL (≈ 0.555 µM) | 0.5 µg/mL (≈ 0.711 µM) | > 100 µg/mL |
